Positions count from the first letter of the chain named. Like-named read-outs stand apart in the source and are kept apart here.
Tests used:
[1] = target: T1, RIG-I E373Q (Homo sapiens, UniProt O95786, E373Q); test: MANT-nucleotide binding, tryptophan fluorescence FRET; settings: n = 4
T1 construct: different full-length RIG-I mutants (1–925, N-terminal His-tag); made in house; host or cells: High Five (Trichoplusia ni) insect cells, baculovirus, pFBDM vector
T1 sequence (O95786 1-925 E373Q): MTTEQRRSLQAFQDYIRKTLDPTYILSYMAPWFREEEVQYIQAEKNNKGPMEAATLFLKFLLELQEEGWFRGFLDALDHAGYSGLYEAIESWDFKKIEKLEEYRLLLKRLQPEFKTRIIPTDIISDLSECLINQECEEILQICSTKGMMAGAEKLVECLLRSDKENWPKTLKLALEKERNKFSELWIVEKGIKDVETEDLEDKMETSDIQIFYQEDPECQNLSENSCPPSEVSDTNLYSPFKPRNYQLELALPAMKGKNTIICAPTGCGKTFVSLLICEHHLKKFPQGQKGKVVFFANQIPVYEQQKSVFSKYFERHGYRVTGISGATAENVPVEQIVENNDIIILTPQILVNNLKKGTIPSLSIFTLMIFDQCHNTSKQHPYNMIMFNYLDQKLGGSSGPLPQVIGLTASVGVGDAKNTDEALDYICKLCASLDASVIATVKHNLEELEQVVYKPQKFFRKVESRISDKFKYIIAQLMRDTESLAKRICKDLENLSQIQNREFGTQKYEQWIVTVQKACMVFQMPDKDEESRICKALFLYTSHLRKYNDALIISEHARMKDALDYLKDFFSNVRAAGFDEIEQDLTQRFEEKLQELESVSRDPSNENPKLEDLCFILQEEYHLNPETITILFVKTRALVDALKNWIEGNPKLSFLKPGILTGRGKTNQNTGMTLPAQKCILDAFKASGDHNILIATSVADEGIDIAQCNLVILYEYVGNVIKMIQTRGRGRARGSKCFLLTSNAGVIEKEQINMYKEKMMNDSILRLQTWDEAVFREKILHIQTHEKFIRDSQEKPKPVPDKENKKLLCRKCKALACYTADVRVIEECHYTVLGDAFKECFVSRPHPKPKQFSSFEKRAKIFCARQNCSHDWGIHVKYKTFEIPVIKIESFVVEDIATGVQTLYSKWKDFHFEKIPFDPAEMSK
Procedure: (§1) Binding of MANT-ATP and MANT-ATPγS to different full-length RIG-I mutants (1–925, N-terminal His-tag) was determined via Förster resonance energy transfer from RIG-I to MANT-ATP (Jena Bioscience, Jena, Germany). […] Fluorescence of MANT-ATP was measured in a TECAN M1000 microplate reader at λex/em = 290/448 nm, gain = 170 using an average of five reads per well. Assays were performed four times in independent experiments using the same protein purification batch. For determination of affinities fluorescence values were fitted to Equation (1) using R, where y is the fluorescence, [P] is the protein concentration, Bmax is the maximal fluorescence and KD is the dissociation constant. Fitting was performed globally on all available datasets. Representative values in figures are mean values ± SD.

[2] = target: T2, RIG-I (Homo sapiens, UniProt O95786); test: as above; settings: absence of RNA; full-length His-RIG-I; n = 4; read-out: Affinity (KD) to RIG-I
T2 construct: Recombinant full-length human RIG-I or RIG-I single amino acid mutants (1–925, N-terminal His-tag); made in house; host or cells: High Five (Trichoplusia ni) insect cells, baculovirus, pFBDM vector
T2 sequence (O95786 1-925): T1 sequence (O95786 1-925 E373Q) with Q373E
Procedure: as §1

MANT-ATP
Kd ([1]; absence of RNA, read-out: Affinity (KD) to RIG-I E373Q): 72 ± 13 µM | Kd ([1]; presence of equimolar 14mer dsRNA, read-out: Affinity (KD) to RIG-I E373Q + RNA): 28 ± 5 µM | Kd [2]: 72 ± 13 µM

Reference: paper PMC6086658, “Unified mechanisms for self-RNA recognition by RIG-I Singleton-Merten syndrome variants” (eLife, 2018)
